Like-named read-outs stand apart in the source and are kept apart here.
Columns and labels:
Format in all cases: cell-based, Human
MDA-MB-231 cells = assay: Inhibitory effect of compounds on MDA-MB-231 cell proliferation; conditions: read-out: IC50, inhibitory activity on MDA-MB-231 cell proliferation
Protocol: (1) Cell plating: First, tumor cells MDA-MB-231 were cultured in corresponding medium, then digested with trypsin, centrifuged, resuspended, and counted, and the cells were adjusted to an appropriate concentration for plating.
(§1) Co-incubation of the compound of the present disclosure and tumor cells: after the cells adhered to the wall, the medium was removed, and the diluted bioactive molecule (the compound of the present disclosure) was added to the wells of the above plate, and incubated for 72 h.
(§2) In vitro cell viability detection: After the incubation, 50 μL of Cell Counting-Lite™ 2.0 reagent (Vazyme/Novazyme) was added to each well, shaken and mixed well in the dark, reacted for 10 minutes, and then the detection was carried out with a microplate reader (manufacturer: BMG, Model: PHERAStar-FS) for reading. The background RLU was obtained by using cell-free medium (with Cell Counting-Lite™), and the vehicle RLU was obtained by using cell-containing medium (with Cell Counting-Lite™). Cell inhibition rate=1−(sample RLU−background RLU)/(solvent RLU−background RLU)×100%. According to the four-parameter model fitting curve, the half maximal inhibitory concentration (IC50) of the compound was calculated, and the detection results were shown in Table 18.

HT29 cells = assay: Inhibitory effect of compounds on HT29 cell proliferation; conditions: read-out: IC50, inhibitory activity on HT29 cell proliferation
Protocol: (1) Cell plating: First, tumor cells HT29 were cultured in corresponding medium, then digested with trypsin, centrifuged, resuspended, and counted, and the cells were adjusted to an appropriate concentration for plating.
as §1
as §2, with “2.” for “18.”

Jeko-1 cells = assay: Inhibitory effect of compounds on Jeko-1 cell proliferation; conditions: read-out: IC50, inhibitory activity on Jeko-1 cell proliferation
Protocol: (1) Cell plating: First, tumor cells Jeko-1 were cultured in corresponding medium, then digested with trypsin, centrifuged, resuspended, and counted, and the cells were adjusted to an appropriate concentration for plating.
as §1
as §2, with “20.” for “18.”

NCI-N87 cells = assay: Inhibitory effect of compounds on NCI-N87 cell proliferation
Protocol: (1) Cell plating: First, tumor cells NCI-N87 were cultured in corresponding medium, then digested with trypsin, centrifuged, resuspended, and counted, and the cells were adjusted to an appropriate concentration for plating.
as §1
as §2, with “12.” for “18.”

A549 cells = assay: Inhibitory effect of compounds on A549 cell proliferation; conditions: Homo sapiens, A549, 72 h, read-out: IC50, inhibitory activity on A549 cell proliferation
Protocol: (1) Cell plating: First, tumor cells A549 were cultured in the corresponding medium, then digested with trypsin, centrifuged and resuspended, and counted, and the cells were adjusted to an appropriate concentration for plating.
as §1
as §2, with “activity” for “viability”, “4.” for “18.”

NCI-H358 cells = assay: Inhibitory effect of compounds on NCI-H358 cell proliferation; conditions: Homo sapiens, NCI-H358, 72 h, read-out: IC50, inhibitory activity on NCI-H358 cell proliferation, NCI-H358 human non-small cell lung cancer cells, 72 h incubation, Cell Counting-Lite 2.0
Protocol: (1) Cell plating: First, tumor cells NCI-H358 were cultured in corresponding medium, then digested with trypsin, centrifuged, resuspended, and counted, and the cells were adjusted to an appropriate concentration for plating.
as §1
as §2, with “10.” for “18.”

Hela cells = assay: Inhibitory effect of compounds on Hela cell proliferation; conditions: Homo sapiens, HeLa, 72 h, read-out: IC50, inhibitory activity on Hela cell proliferation
Protocol: (1) Cell plating: First, tumor cells Hela were cultured in corresponding medium, then digested with trypsin, centrifuged, resuspended, and counted, and the cells were adjusted to an appropriate concentration for plating.
as §1
as §2, with “14.” for “18.”

SMILES	IC50 (MDA-MB-231 cells; Homo sapiens, MDA-MB-231, 72 h) [nM]	IC50 (HT29 cells; Homo sapiens, HT-29, 72 h) [nM]	further results
CC[C@@]1(O)C(=O)OCc2c1cc1n(c2=O)Cc2c-1nc1cc(F)c(C)c3c1c2[C@@H](NC(=O)[C@H](O)CN(C)C)CC3 (single isomer, unassigned) [Example 20 (1-10-A)]	97.6	61.6	–
CC[C@@]1(O)C(=O)OCc2c1cc1n(c2=O)Cc2c-1nc1cc(F)c(C)c3c1c2[C@H](CN)CC3 (single isomer, unassigned) [Example 13 (5-7-B)]	172	4.66	IC50 (Jeko-1 cells; Homo sapiens, JeKo-1, 72 h): 0.18 nM; IC50 (NCI-N87 cells; Homo sapiens, NCI-N87, 72 h, read-out: IC50, inhibitory activity on NCI-N87 cell proliferation, NCI-N87 human gastric cancer cells, 72 h incubation, Cell Counting-Lite 2.0): 7.31 nM
CC[C@@]1(O)C(=O)OCc2c1cc1n(c2=O)Cc2c-1nc1cc(Cl)c(C)c3c1c2[C@H](NC(=O)C1(O)CC1)CC3 [Example 7 (2-20-B), N-((1R,9S)-5-chloro-9-ethyl-9-hydroxy-4-methyl-10,13-dioxo-2,3,9,10,13,15-hexahydro-1H,12H-benzo[de]pyrano[3′,4′:6,7]indolizino[1,2-b]quinolin-1-yl)-1-hydroxycyclopropane-1-carboxamide]	–	4.03	IC50 (A549 cells): 23.1 nM
CC[C@@]1(O)C(=O)OCc2c1cc1n(c2=O)Cc2c-1nc1cc3c(cc1c2CCNCCOC)OCO3 [Example 22 (4-15), (S)-7-Ethyl-7-hydroxy-14-(2-((2-methoxyethyl)amino)ethyl)-7H-[1,3]dioxolano[4,5-g]pyrano[3′,4′:6,7]indolizino[1,2-b]quinolin-8,11 (10H,13H)-dione]	175	5.2	IC50 (NCI-H358 cells): 17.8 nM; IC50 (Jeko-1 cells; Homo sapiens, JeKo-1, 72 h): 0.11 nM
CC[C@@]1(O)C(=O)OCc2c1cc1n(c2=O)Cc2c-1nc1cc(F)c(C)c3c1c2[C@@H](NC(=O)[C@@H](O)CN(C)C)CC3 (single isomer, unassigned) [Example 20 (1-10-B)]	27.2	10.3	–
CC[C@@]1(O)C(=O)OCc2c1cc1n(c2=O)Cc2c-1nc1cc(F)c(Cl)c3c1c2[C@@H](NC(=O)CO)CC3 [Example 9 (3-4-A), N-((1S,9S)-4-Chloro-9-ethyl-5-fluoro-9-hydroxy-10,13-dioxo-2,3,9,10,13,15-hexahydro-1H, 12H-benzo[de]pyrano[3′,4:6,7]indolizino[1,2-b]quinolin-1-yl)-2-hydroxyacetamide]	–	–	IC50 (MDA-MB-231 cells; MDA-MB-231 human breast cancer cells, 72 h incubation, Cell Counting-Lite 2.0): 285 nM; IC50 (Jeko-1 cells; Jeko-1 human mantle cell lymphoma cells, 72 h incubation, Cell Counting-Lite 2.0): 0.27 nM; IC50 (NCI-N87 cells; NCI-N87 human gastric cancer cells, 72 h incubation, Cell Counting-Lite 2.0, read-out: IC50, inhibitory activity on NCI-N87 cell proliferation): 4.38 nM; IC50 (HT29 cells; HT29 human colon cancer cells, 72 h incubation, Cell Counting-Lite 2.0): 5.55 nM
CC#C[C@H](O)C(=O)N[C@H]1CCc2c(C)c(F)cc3nc4c(c1c23)Cn1c-4cc2c(c1=O)COC(=O)[C@]2(O)CC [Example 1 (1-1-B), (S)—N-((1S,9S)-9-ethyl-5-fluoro-9-hydroxy-4-methyl-10,13-dioxo-2,3,9,10,13,15-hexahydro-1H,12H-benzo[de]pyrano[3′,4′:6,7]indolizino[1,2-b]quinolin-1-yl)-2-hydroxypent-3-yneamide]	–	1.54	IC50 (Hela cells): 3.65 nM
